{
  "source": "patent US20050106173A1",
  "about": "“METHODS AND COMPOSITIONS FOR TREATING MALE SEXUAL DYSFUNCTION” (priority 2003, published 2005)",
  "type_in_all_cases": "in vivo",
  "key": {"castrated Wistar rats [1]": {"test_system": "castrated Wistar rats", "assay": "Blood testosterone concentration by radio-immunoassay (RIA) in castrated rats", "conditions": "once daily for 30 days, blood after the erection test on day 31, RIA", "protocol": "(§1) To test the ability of the EMF-treated AS2.502 cells to improve male sexual function, hormone levels, and sexual organ development, 50 healthy adult male Wistar rats (about 150-180 g body weight, 8-10 weeks old) were selected. Ten rats were randomly selected to be the normal control group, CK1 (uncastrated rats). Under anesthesia with pentobarbital (5%, at 45 mg/kg body weight), both testes (including the epididymis) of each of the remaining 40 rats were removed under sterile conditions. Immediately after castration, Penicillin G was injected at 20,000 U/kg body weight once daily for five consecutive days. The castrated rats were then randomly divided into four equal groups, designated as AY (for treatment with the activated yeast composition), NY (for treatment with the control yeast composition), CK2 (for treatment with testosterone propionate), and CK3 (for treatment with saline). Each rat was kept separately. The activated yeast composition was administered to the AY rats at 1.2 ml/kg body weight once daily for 30 days. The control yeast composition was administered to the NY rats and saline was administered to the CK3 rats at the same dosage. […]\nEach rat was sacrificed after the erection test. Blood samples were collected from each rat, and the blood concentration of testosterone was determined by the standard radio-immunoassay (RIA) method."}, "[2]": {"test_system": "castrated male Wistar rats", "assay": "Wet weight of glandulae preputiales, seminal vesicle and prostate of castrated rats", "conditions": "once daily for 30 days, sacrificed day 31", "protocol": "as §1, with “100-120” for “150-180”, “6-8” for “8-10”\nEach male rat was sacrificed on the thirty-first day. […] The wet weight of the prostate and seminal vesicle was recorded in Table 2. […] The wet weight of the glandulae preputiales was also recorded in Table 2."}, "[3]": {"test_system": "castrated male Wistar rats", "assay": "Sexual activity of castrated male rats caged with female rats (mounting, sniffing and licking frequency)", "conditions": "once daily for 30 days (yeast 1.2 ml/kg intragastric; testosterone propionate 2 mg/kg i.m.), day 29, two female rats in cage", "protocol": "as §1, with “100-120” for “150-180”, “6-8” for “8-10”, “days.” for “days. The control yeast composition was administered to the NY rats and saline was administered to the CK3 rats at the same dosage.”\nOn the twenty-ninth day of the experiment, two female rats (100-120 g, 6-8 weeks old) were put into the same cage as each male rat and kept there for 30 minutes. The frequency of the male rat's sniffing and licking of the female rats, and the frequency of the male rat's mounting of the female rats were recorded in Table 2."}, "castrated Wistar rats [4]": {"test_system": "castrated Wistar rats", "assay": "Erectile function by electrical stimulation (erection lag) in castrated rats", "conditions": "once daily for 30 days, day 31, stimulator 55 Hz and 4.5 mA", "protocol": "as §1\nOn the thirty-first day of the experiment, an electrical stimulator was used to measure the erectile function of the rats. […] The time needed for the penis to achieve erection (“the erection lag”) was recorded in Table 3."}},
  "data": [
    {"smiles": "CCC(=O)O[C@H]1CC[C@H]2[C@@H]3CCC4=CC(=O)CC[C@]4(C)[C@H]3CC[C@]12C", "note": "[testosterone propionate]", "values": [
      {"measurement": "Testosterone Levels", "setting": "castrated Wistar rats [1]", "result": "124.17 ± 67.65", "unit": "ng/dL"},
      {"measurement": "Glandulae Preputiales (wet weight)", "setting": "[2]", "result": "89.5 ± 14.6", "unit": "mg"},
      {"measurement": "Seminal Vesicle and Prostate (wet weight)", "setting": "[2]", "result": "198.7 ± 42.6", "unit": "mg"},
      {"measurement": "Mounting Frequency Within a 30 min Period", "setting": "[3]", "result": "12.3 ± 4.6"},
      {"measurement": "Sniffing & Licking Frequency Within a 30 min Period", "setting": "[3]", "result": "22.7 ± 4.6"},
      {"measurement": "Erection Lag", "setting": "castrated Wistar rats [4]", "result": "19.3 ± 14.6", "unit": "s"}
    ]}
  ]
}
